Assay results: US8093252B2, “Crystalline polymorphic form of glucokinase activator” (AstraZeneca AB, priority 2009, dated 2012)

How the values were obtained:
[1] = dihydrate from slurry of the compound in water, disclosed in WO 2007/007041; cited from earlier work
[2] = relative stability of the crystalline forms of the compound; assay type: physicochemical; conditions: crystalline form prepared from isopropyl alcohol (IPA)

| stability of crystalline form relative to the other forms [2] | Compound | stability of crystalline form in the presence of water [1] |
| --- | --- | --- |
| – | COC[C@H](C)Oc1cc(Oc2cnc(C(=O)N3CCC3)cn2)cc(C(=O)Nc2cnc(C)cn2)c1 [Form 3, 3-{[5-(azetidin-1-ylcarbonyl)pyrazin-2-yl]oxy}-5-{[(1S)-1-methyl-2-(methyloxy)ethyl]oxy}-N-(5-methylpyrazin-2-yl)benzamide] | most stable |
| more stable | COC[C@H](C)Oc1cc(Oc2cnc(C(=O)N3CCC3)cn2)cc(C(=O)Nc2cnc(C)cn2)c1 [Form 6, 3-{[5-(azetidin-1-ylcarbonyl)pyrazin-2-yl]oxy}-5-{[(1S)-1-methyl-2-(methyloxy)ethyl]oxy}-N-(5-methylpyrazin-2-yl)benzamide] | – |
